Test system: zinnia (Zinnia peruviana var. “Giant Dahlia”) seedlings
Test: Herbicidal effect (percent control) on zinnia seedlings
Type: in vivo
Conditions: Enz 0 mg, 2 mL dose
Experimental: In one example, combinations of cellulase and hemicellulase from Trichoderma viride (i.e. depolymerase, labeled “Enz” in Table 1), bovine serum albumin (i.e. non-depolymerase protein, labeled “BSA” in Table 1), and glyphosate (labeled “Gly” in Table 1) are blended and applied in 2 mL doses directly to zinnia (Zinnia peruviana var. “Giant Dahlia”) seedlings at the first true leaf stage. Treatments ranged from 0-1.6 mg of depolymerase that consisted of cellulase from Trichoderma viride and hemicellulase from Aspergillus niger in a ratio of 10.5:6, respectively; non-depolymerase BSA from 0-24 mg; and glyphosate from 0-0.3 mg. […] Herbicidal effect was assessed 12 days after treatment (DAT). Percent control ratings ascertained the extent of control, i.e. reduction in growth, and were scored on a basis of 0 to 100 where 100 represents complete killing of the plants and 0 represents no reduction in growth as compared to the untreated control.

Compound	Percent Control 12 DAT (Gly 0.003 mg, BSA 0 mg) [%]	Percent Control 12 DAT (Gly 0.03 mg, BSA 0 mg) [%]	Percent Control 12 DAT (Gly 0.3 mg, BSA 0 mg) [%]	Percent Control 12 DAT (Gly 0 mg, BSA 0.24 mg) [%]	Percent Control 12 DAT (Gly 0 mg, BSA 2.4 mg) [%]	Percent Control 12 DAT (Gly 0 mg, BSA 24 mg) [%]
O=C(O)CNCP(=O)(O)O [Gly, glyphosate]	0	28	28	–	–	–
bovine serum albumin [BSA]	–	–	–	3	7	13
